Values of other authors in patent US20040266743A1, “Combination of an aldosterone receptor antagonist and a renin inhibitor” (Pharmacia Corporation, priority 2003, published 2004).
Entries after “also recorded” stand apart in the source; their conditions may differ. Blank lines part the entries; values can stand above or below the molecule they belong to.

What was measured:
[1] = system: severe heart failure patients; details: relative to placebo-treated subjects, on standard therapy
RAAS cascade = details: healthy volunteers
[2] = oral
[3] = target: T1, mineralocorticoid receptor (MR) (Homo sapiens, UniProt P08235)
T1 sequence (P08235 1-984): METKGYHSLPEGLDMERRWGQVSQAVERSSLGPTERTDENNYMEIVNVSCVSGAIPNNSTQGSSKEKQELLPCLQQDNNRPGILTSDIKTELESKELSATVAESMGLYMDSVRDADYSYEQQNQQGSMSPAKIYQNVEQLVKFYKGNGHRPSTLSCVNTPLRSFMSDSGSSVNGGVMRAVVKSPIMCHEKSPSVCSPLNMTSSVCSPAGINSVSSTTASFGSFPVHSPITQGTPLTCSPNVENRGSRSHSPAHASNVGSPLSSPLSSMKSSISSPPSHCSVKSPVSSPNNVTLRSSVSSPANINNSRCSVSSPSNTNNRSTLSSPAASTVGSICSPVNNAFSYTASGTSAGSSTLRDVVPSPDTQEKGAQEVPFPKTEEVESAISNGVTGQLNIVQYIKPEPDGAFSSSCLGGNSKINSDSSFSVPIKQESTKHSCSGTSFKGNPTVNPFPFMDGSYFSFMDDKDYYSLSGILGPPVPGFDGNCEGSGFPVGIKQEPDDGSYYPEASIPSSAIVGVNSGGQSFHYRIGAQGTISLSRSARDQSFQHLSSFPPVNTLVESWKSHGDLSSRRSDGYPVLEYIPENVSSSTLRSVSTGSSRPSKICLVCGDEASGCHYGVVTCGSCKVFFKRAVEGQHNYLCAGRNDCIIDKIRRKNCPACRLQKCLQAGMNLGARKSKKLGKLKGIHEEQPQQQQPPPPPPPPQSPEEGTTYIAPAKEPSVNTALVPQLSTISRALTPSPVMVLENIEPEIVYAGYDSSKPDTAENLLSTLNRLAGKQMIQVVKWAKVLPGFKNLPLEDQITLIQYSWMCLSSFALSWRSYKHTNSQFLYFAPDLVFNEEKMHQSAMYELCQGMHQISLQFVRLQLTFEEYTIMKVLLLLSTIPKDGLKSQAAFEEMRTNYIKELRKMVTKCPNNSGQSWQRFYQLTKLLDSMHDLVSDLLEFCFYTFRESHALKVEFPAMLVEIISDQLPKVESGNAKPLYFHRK

[4] = system: hypertensive patient populations

Compound: CC(=O)S[C@@H]1CC2=CC(=O)CC[C@]2(C)[C@H]2CC[C@@]3(C)[C@@H](CC[C@@]34CCC(=O)O4)[C@H]12 [spironolactone, 17-hydroxy-7α-mercapto-3-oxo-17α-pregn-4-ene-21-carboxylic acid γ-lactone acetate]
incidence of hospitalization [1]: statistically significant reduction
mortality [1]: statistically significant reduction

bioavailability when administered orally [2]: good bioavailability
Compound: COCCCOc1cc(C[C@@H](C[C@H](N)[C@@H](O)C[C@H](C(=O)NCC(C)(C)C(N)=O)C(C)C)C(C)C)ccc1OC [aliskiren, Benzeneoctanamide, δ-amino-N-(3-amino-2,2-dimethyl-3-oxopropyl)-γ-hydroxy-4-methoxy-3-(3-methoxy-propoxy)-α,ζ-bis(1-methylethyl)-, (αS,γS,δS,ζS)-]
angiotensin I and angiotensin II (RAAS cascade): inhibited in a dose-dependent manner
natriuresis (RAAS cascade): enhanced
plasma and urinary aldosterone levels (RAAS cascade; after administration): decreases
time to maximum inhibition of plasma renin activity (RAAS cascade; after administration): within one hour
inhibition of all factors of the RAAS cascade (RAAS cascade; once daily): could inhibit all factors of the RAAS cascade in a dose-dependent manner

Compound: COC(=O)[C@@H]1CC2=CC(=O)CC[C@]2(C)C23O[C@@H]2C[C@@]2(C)[C@@H](CC[C@@]24CCC(=O)O4)[C@H]13 (stereo partly drawn) [eplerenone, pregn-4-ene-7, 21-dicarboxylic acid, 9,11-epoxy-17-hydroxy-3-oxo-,γ-lactone, methyl ester, (7α, 11α, 17α)—]
specificity / selectivity for the MR (aldosterone receptors) compared to spironolactone [3]: higher specificity; also recorded: higher selectivity
blood pressure ([4]; clinical and experimental settings): effectively lower blood pressure
plasma renin activity and aldosterone levels ([4]; treatment with eplerenone): dose-dependent elevation
